# Results: patent US20170231177A1, “REGENERATION AND TRANSFORMATION OF COSMOS BIPINNATUS PLANTLETS” (Novin Giti Gene R&D Center (N.G.G), priority 2015, published 2017)
# Tests used:
# [1] = system: cotyledon explants of Cosmos Bipinnatus; assay: Shoot number of regenerated cotyledon explants on regeneration media; format: cell-based
# Method: (§1) In this example, direct regeneration of Cosmos Bipinnatus plantlets was carried out with the following steps according to one or more aspects of the present disclosure. First, Cosmos Bipinnatus seeds were sterilized. The sterilization of Cosmos Bipinnatus seeds was carried out by soaking the seeds in an ethanol solution with a concentration of about 70% volume/volume for about 1 min followed by soaking the seeds in a hypochlorite sodium solution with a concentration of about 2% weight/volume for about 10 min, and then the seeds were rinsed three times with sterile distilled water.
# (§2) The sterilized Cosmos Bipinnatus seeds were then germinated in order to obtain cotyledons of Cosmos Bipinnatus plant. Seed germination was carried out by putting the sterilized Cosmos Bipinnatus seeds under a sterile condition in an agar-solidified MS medium. Then, the sterilized Cosmos Bipinnatus seeds in the agar-solidified MS medium were incubated in a growth chamber with photoperiods of 16 hours in light and 8 hours in dark under fluorescent illuminations (60 μmol m^2 s^1) at 22° C.±1° C. for a period of 3 days. The cotyledons of Cosmos Bipinnatus plant that grew from germinated seeds after 3 days were cut and used as explants in the following steps of the direct regeneration process.
# (§3) The obtained explants were then cultured onto a regeneration medium for regenerating cotyledon explants of Cosmos Bipinnatus. To this end, 10 explants, with their adaxial side down, were cultured onto the regeneration medium in a Petri dish for regeneration in cotyledons to occur. The regeneration in cotyledons was assessed by examining shoot-inducing ability in the presence of different regeneration medium compositions. The different regeneration medium compositions included respectively different concentrations of plant growth regulators and ethylene inhibitors. The regeneration media contained benzyl adenine (BA), silver nitrate, and adenine sulfate with different concentrations. An MS medium supplemented with 3% sucrose was used as a basal medium and the pH was adjusted to about 5.8 using a 1 N solution of NaOH.
# As used herein, “shoot number” is the average number of shoots that are generated on the 10 explants used in the experiments for three replications.
# [2] = system: cotyledon explants of Cosmos Bipinnatus; assay: Regeneration frequency of cotyledon explants on regeneration media; format: cell-based
# Method: as §1, §2
# as §3, with “An MS medium supplemented with 3% sucrose was used as a basal medium and the pH was adjusted to about 5.8 using a 1 N solution of NaOH.” left out
# [3] = BA 2.5, AgNO3 0, adenine sulfate 0 mg/l in MS medium
# [4] = BA 5, AgNO3 0, adenine sulfate 0 mg/l in MS medium
# [5] = BA 7.5, AgNO3 0, adenine sulfate 0 mg/l in MS medium
structure (smiles),measurement,setting,value
"Nc1ncnc2nc[nH]c12.O=S(=O)(O)O [Adenine sulfate, adenine sulfate]",Shoot number,"[1]; BA 0, AgNO3 0, adenine sulfate 10 mg/l in MS medium",0.00 ± 0.00
same,Shoot number,"[1]; BA 0, AgNO3 0, adenine sulfate 20 mg/l in MS medium",0.00 ± 0.00
same,Shoot number,"[1]; BA 0, AgNO3 0, adenine sulfate 40 mg/l in MS medium",0.00 ± 0.00
same,Shoot number,"[1]; BA 0, AgNO3 0, adenine sulfate 80 mg/l in MS medium",0.00 ± 0.00
"O=[N+]([O-])[O-].[Ag+] [AgNO3, silver nitrate]",Shoot number,"[1]; BA 0, AgNO3 2.5, adenine sulfate 0 mg/l in MS medium",0.00 ± 0.00
same,Shoot number,"[1]; BA 0, AgNO3 5, adenine sulfate 0 mg/l in MS medium",0.00 ± 0.00
same,Shoot number,"[1]; BA 0, AgNO3 7.5, adenine sulfate 0 mg/l in MS medium",0.00 ± 0.00
"c1ccc(CNc2ncnc3nc[nH]c23)cc1 [BA, benzyladenine]",Regeneration frequency,[2]; [3],6.25 ± 0.00%
same,Regeneration frequency,[2]; [4],6.25 ± 1.70%
same,Regeneration frequency,[2]; [5],5.25 ± 2.06%
same,Shoot number,[1]; [3],1.34 ± 0.33
same,Shoot number,[1]; [4],0.34 ± 0.28
same,Shoot number,[1]; [5],0.67 ± 0.33
